# Test results taken from US8952024B2, “Herbicidal pyrimidone derivatives” (E I du Pont de Nemours and Company, priority 2009, dated 2015).
# Tested on: woolly cupgrass (Eriochloa villosa)
# Assay: Test B pre-/postemergence plant response
# Type: in vivo
# Conditions: 31 g ai/ha, postemergence; scale 0 to 100, 0 is no effect, 100 is complete control
# Outline: (§1)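 Compound in solvent + surfactant applied pre-em (loam/sand) or post-em (plants 2–18 cm, peat medium); greenhouse hold 13–15 days; visual 0–100 control score.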
row,Compound,"Plant response rating, Cupgrass, Woolly"
1,COCCn1c(-c2ccccc2)ncc(C(=O)C2=C(O)CCCC2=O)c1=O [Compound 85],75

# Same assay, conditions: 62 g ai/ha, postemergence; 0 is no effect, 100 is complete control; 13 to 15 days
row,Compound,"Cupgrass, Woolly plant response rating (0 to 100 scale)"
1,COCCn1c(-c2ccccc2)ncc(C(=O)C2=C(O)CCCC2=O)c1=O [Compound 85],85

# Same assay, conditions: Postemergence, 125 g ai/ha; visual rating after 13 to 15 days, scale 0 (no effect) to 100 (complete control)
row,Compound,"Plant response rating, Cupgrass, Woolly"
1,COCCn1c(-c2ccccc2)ncc(C(=O)C2=C(O)CCCC2=O)c1=O [Compound 85],90

# Same assay, conditions: Postemergence, 250 g ai/ha; scale 0 to 100 (0 no effect, 100 complete control)
row,Compound,"Plant response rating, Cupgrass, Woolly"
1,COCCn1c(-c2ccccc2)ncc(C(=O)C2=C(O)CCCC2=O)c1=O [Compound 85],90

# Tested on: bermudagrass (Cynodon dactylon)
# Assay: Test B pre-/postemergence plant response
# Type: in vivo
# Conditions: 31 g ai/ha, postemergence; scale 0 to 100, 0 is no effect, 100 is complete control
# Outline: as §1
row,Compound,"Plant response rating, Bermudagrass"
1,COCCn1c(-c2ccccc2)ncc(C(=O)C2=C(O)CCCC2=O)c1=O [Compound 85],85

# Same assay, conditions: 62 g ai/ha, postemergence; 0 is no effect, 100 is complete control; 13 to 15 days
row,Compound,Bermudagrass plant response rating (0 to 100 scale)
1,COCCn1c(-c2ccccc2)ncc(C(=O)C2=C(O)CCCC2=O)c1=O [Compound 85],85

# Same assay, conditions: Postemergence, 125 g ai/ha; visual rating after 13 to 15 days, scale 0 (no effect) to 100 (complete control)
row,Compound,"Plant response rating, Bermudagrass"
1,COCCn1c(-c2ccccc2)ncc(C(=O)C2=C(O)CCCC2=O)c1=O [Compound 85],90

# Same assay, conditions: Postemergence, 250 g ai/ha; scale 0 to 100 (0 no effect, 100 complete control)
row,Compound,"Plant response rating, Bermudagrass"
1,COCCn1c(-c2ccccc2)ncc(C(=O)C2=C(O)CCCC2=O)c1=O [Compound 85],90

# Tested on: lambsquarters (Chenopodium album)
# Assay: Test B pre-/postemergence plant response
# Type: in vivo
# Conditions: 31 g ai/ha, postemergence; scale 0 to 100, 0 is no effect, 100 is complete control
# Outline: as §1
row,Compound,"Plant response rating, Lambsquarters"
1,COCCn1c(-c2ccccc2)ncc(C(=O)C2=C(O)CCCC2=O)c1=O [Compound 85],98

# Same assay, conditions: 62 g ai/ha, postemergence; 0 is no effect, 100 is complete control; 13 to 15 days
row,Compound,Lambsquarters plant response rating (0 to 100 scale)
1,COCCn1c(-c2ccccc2)ncc(C(=O)C2=C(O)CCCC2=O)c1=O [Compound 85],98

# Same assay, conditions: Postemergence, 250 g ai/ha; scale 0 to 100 (0 no effect, 100 complete control)
row,Compound,"Plant response rating, Lambsquarters"
1,COCCn1c(-c2ccccc2)ncc(C(=O)C2=C(O)CCCC2=O)c1=O [Compound 85],100

# Tested on: morningglory (Ipomoea coccinea)
# Assay: Test B pre-/postemergence plant response
# Type: in vivo
# Conditions: 31 g ai/ha, postemergence; scale 0 to 100, 0 is no effect, 100 is complete control
# Outline: as §1
row,Compound,"Plant response rating, Morningglory"
1,COCCn1c(-c2ccccc2)ncc(C(=O)C2=C(O)CCCC2=O)c1=O [Compound 85],95

# Same assay, conditions: 62 g ai/ha, postemergence; 0 is no effect, 100 is complete control; 13 to 15 days
row,Compound,Morningglory plant response rating (0 to 100 scale)
1,COCCn1c(-c2ccccc2)ncc(C(=O)C2=C(O)CCCC2=O)c1=O [Compound 85],100

# Same assay, conditions: Postemergence, 250 g ai/ha; scale 0 to 100 (0 no effect, 100 complete control)
row,Compound,"Plant response rating, Morningglory"
1,COCCn1c(-c2ccccc2)ncc(C(=O)C2=C(O)CCCC2=O)c1=O [Compound 85],100

# Tested on: giant foxtail (Setaria faberii)
# Assay: Test B pre-/postemergence plant response
# Type: in vivo
# Conditions: 31 g ai/ha, postemergence; scale 0 to 100, 0 is no effect, 100 is complete control
# Outline: as §1
row,Compound,"Plant response rating, Foxtail, Giant"
1,COCCn1c(-c2ccccc2)ncc(C(=O)C2=C(O)CCCC2=O)c1=O [Compound 85],75

# Same assay, conditions: 62 g ai/ha, postemergence; 0 is no effect, 100 is complete control; 13 to 15 days
row,Compound,"Foxtail, Giant plant response rating (0 to 100 scale)"
1,COCCn1c(-c2ccccc2)ncc(C(=O)C2=C(O)CCCC2=O)c1=O [Compound 85],80

# Same assay, conditions: Postemergence, 250 g ai/ha; scale 0 to 100 (0 no effect, 100 complete control)
row,Compound,"Plant response rating, Foxtail, Giant"
1,COCCn1c(-c2ccccc2)ncc(C(=O)C2=C(O)CCCC2=O)c1=O [Compound 85],98

# Tested on: Italian ryegrass (Lolium multiflorum)
# Assay: Test B pre-/postemergence plant response
# Type: in vivo
# Conditions: 31 g ai/ha, postemergence; scale 0 to 100, 0 is no effect, 100 is complete control
# Outline: as §1
row,Compound,"Plant response rating, Ryegrass, Italian"
1,COCCn1c(-c2ccccc2)ncc(C(=O)C2=C(O)CCCC2=O)c1=O [Compound 85],0

# Same assay, conditions: 62 g ai/ha, postemergence; 0 is no effect, 100 is complete control; 13 to 15 days
row,Compound,"Ryegrass, Italian plant response rating (0 to 100 scale)"
1,COCCn1c(-c2ccccc2)ncc(C(=O)C2=C(O)CCCC2=O)c1=O [Compound 85],10

# Same assay, conditions: Postemergence, 250 g ai/ha; scale 0 to 100 (0 no effect, 100 complete control)
row,Compound,"Plant response rating, Ryegrass, Italian"
1,COCCn1c(-c2ccccc2)ncc(C(=O)C2=C(O)CCCC2=O)c1=O [Compound 85],45

# Tested on: green foxtail (Setaria viridis)
# Assay: Test B pre-/postemergence plant response
# Type: in vivo
# Conditions: 31 g ai/ha, postemergence; scale 0 to 100, 0 is no effect, 100 is complete control
# Outline: as §1
row,Compound,"Plant response rating, Foxtail, Green"
1,COCCn1c(-c2ccccc2)ncc(C(=O)C2=C(O)CCCC2=O)c1=O [Compound 85],80

# Same assay, conditions: 62 g ai/ha, postemergence; 0 is no effect, 100 is complete control; 13 to 15 days
row,Compound,"Foxtail, Green plant response rating (0 to 100 scale)"
1,COCCn1c(-c2ccccc2)ncc(C(=O)C2=C(O)CCCC2=O)c1=O [Compound 85],95

# Same assay, conditions: Postemergence, 250 g ai/ha; scale 0 to 100 (0 no effect, 100 complete control)
row,Compound,"Plant response rating, Foxtail, Green"
1,COCCn1c(-c2ccccc2)ncc(C(=O)C2=C(O)CCCC2=O)c1=O [Compound 85],98
